Converted amounts (≈) assume the structure as drawn.
Columns and labels:
Bacillus subtilis 168CA = test: Minimum Inhibitory Concentration (MIC) testing, broth microdilution, Bacillus subtilis; format: cell-based; details: Bacillus subtilis 168CA; read-out: Bacillus subtilis MICs Activity
Procedure, shortened: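 Broth microdilution followed NCCLS M7-A5, in rich broth such as Mueller Hinton, inoculum at OD 0.09 diluted 1:100, compounds in 1.6% DMSO before inoculum. After 16–20 h at 37 °C, MIC was the lowest concentration without visible growth. Score A: ≦8 μg/ml, B: 16–64 μg/ml, C: >64 μg/ml.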

[1] = test system: Staphylococcus aureus ATCC29213; test: Minimum Inhibitory Concentration (MIC) testing, broth microdilution, Staphylococcus aureus; format: cell-based; details: Staphylococcus aureus ATCC29213; read-out: Staphylococcus aureus MICs Activity
Procedure, shortened: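 Broth microdilution per NCCLS M7-A5 in Mueller Hinton broth, with compound in 1.6% DMSO and inoculum at OD 0.09 diluted 1:100. Plates incubated 16–20 h at 37°C. MIC is the lowest concentration with no visible growth; scored A ≤8, B 16–64, C >64 μg/ml.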

Structure (SMILES)	MIC (Bacillus subtilis 168CA) [µg/mL]	MIC [1] [µg/mL]
NC(=O)c1c(F)ccc(OCc2nc(-c3ccc(O)cc3)cs2)c1F [Example 290, 2,6-Difluoro-3-[4-(4-hydroxy-phenyl)-thiazol-2-ylmethoxy]-benzamide]	< 8	< 8
COC(=O)c1ccc2nc(COc3ccc(F)c(C(N)=O)c3F)sc2c1 [Example 321, 2-(3-Carbamoyl-2,4-difluoro-phenoxymethyl)-benzothiazole-6-carboxylic acid methyl ester]	< 8	< 8
CC(C)(C)c1nc(CCCOc2cccc(C(N)=O)c2)c(C(F)(F)F)o1 [Example 57, 3-{3-[2-(tert-Butyl)-5-(trifluoromethyl)-1,3-oxazol-4-yl]propoxy}benzenecarboxamide]	< 8	16 to 64 (≈ 43.2 to 173 µM)
COC(=O)CCCOc1cccc(C(N)=O)c1 [Example 26, Methyl 4-[3-(aminocarbonyl)phenoxy]butanoate]	> 64	> 64
NC(=O)c1c(F)ccc(OCc2nc3cc(Cl)ncc3s2)c1F [Example 156, 3-(6-Chloro-thiazolo[5,4-c]pyridin-2-ylmethoxy)-2,6-difluoro-benzamide]	< 8	< 8
CC(=O)Oc1cccc(COc2cccc(C(N)=O)c2)c1 [Example 172, 3-[3-(Aminocarbonyl)phenoxy]methylphenyl acetate]	> 64	> 64
Cc1cc(COc2ccc(F)c(C(N)=O)c2F)ccc1F [Example 147, 2,6-Difluoro-3-(4-fluoro-3-methyl-benzyloxy)-benzamide]	16 to 64 (≈ 54.2 to 217 µM)	16 to 64 (≈ 54.2 to 217 µM)
Cc1cccc(COc2ccc(F)c(C(N)=O)c2F)n1 [Example 197, 2,6-Difluoro-3-[(6-methyl-2-pyridinyl)methoxy]benzenecarboxamide]	16 to 64 (≈ 57.5 to 230 µM)	16 to 64 (≈ 57.5 to 230 µM)
CC/C=C\CCCCCOc1cccc(C(N)=O)c1 [Example 61, 3-[(Z)-6-Nonenyloxy]benzenecarboxamide]	< 8	< 8
NC(=O)c1c(F)ccc(OCC2COc3ccccc3O2)c1F (stereo not shown) [Example 204, 3-(2,3-Dihydro-1,4-benzodioxin-2-ylmethoxy)-2,6-difluorobenzenecarboxamide]	16 to 64 (≈ 49.8 to 199 µM)	16 to 64 (≈ 49.8 to 199 µM)
C/C=C/COc1cccc(C(N)=O)c1 [Example 30, 3-[2-Butenyloxy]benzenecarboxamide]	> 64	> 64
NC(=O)c1c(F)ccc(OCc2nc(CCc3ccccc3)cs2)c1F [Example 122, 2,6-Difluoro-3-(4-phenethyl-thiazol-2-ylmethoxy)-benzamide]	< 8	< 8
NC(=O)c1c(F)ccc(OCc2nc(-c3ccc(O)cc3)co2)c1F [Example 312, 2,6-Difluoro-3-[4-(4-hydroxy-phenyl)-oxazol-2-ylmethoxy]-benzamide]	16 to 64 (≈ 46.2 to 185 µM)	< 8
CC(C)(C)c1ccc(-c2noc(COc3ccc(F)c(C(N)=O)c3F)n2)cc1 [Example 249, 3-(3-[4-(tert-Butyl)phenyl]-1,2,4-oxadiazol-5-ylmethoxy)-2,6-difluorobenzenecarboxamide]	< 8	< 8
CCCCCCCCCOc1cccc(C(N)=O)c1 [Example 1, 3-Nonyloxy-benzenecarboxamide]	< 8	< 8
NC(=O)c1c(F)ccc(OCc2noc(C=Cc3ccccc3)n2)c1F [Example 149, 2,6-Difluoro-3-(5-styryl-[1,2,4]oxadiazol-3-ylmethoxy)-benzamide]	< 8	16 to 64 (≈ 44.8 to 179 µM)
CCCCC#CCCCOc1cccc(C(N)=O)c1 [Example 32, 3-(4-Nonynyloxy)benzenecarboxamide]	< 8	16 to 64 (≈ 61.7 to 247 µM)
CCC1CC1CCCCOc1cccc(C(N)=O)c1 (stereo not shown) [Example 91, 3-[4-(2-Ethylcyclopropyl)butoxy]benzenecarboxamide]	< 8	< 8
COc1ccc(-c2nc(COc3ccc(F)c(C(N)=O)c3F)sc2C2CC2)cc1 [Example 286, 3-[5-Cyclopropyl-4-(4-methoxy-phenyl)-thiazol-2-ylmethoxy]-2,6-difluoro-benzamide]	< 8	< 8
NC(=O)c1c(F)ccc(OCc2nc(-c3ccc(F)cc3)no2)c1F [Example 245, 2,6-Difluoro-3-[3-(4-fluorophenyl)-1,2,4-oxadiazol-5-yl]methoxybenzenecarboxamide]	< 8	< 8
COc1ccc(-c2nc(COc3ccc(F)c(C(N)=O)c3F)sc2-c2cccc(O)c2)cc1 [Example 278, 2,6-Difluoro-3-[5-(3-hydroxy-phenyl)-4-(4-methoxy-phenyl)-thiazol-2-ylmethoxy]-benzamide]	< 8	< 8

Structure (SMILES)	MIC (Bacillus subtilis 168CA) [µg/mL]	MIC [1] [µg/mL]
NC(=O)c1c(F)ccc(OCc2coc(-c3ccccc3)n2)c1F [Example 132, 2,6-Difluoro-3-(2-phenyl-oxazol-4-ylmethoxy)-benzamide]	< 8	< 8
C#CCCCCCCCCCOc1ccc(F)c(C(N)=O)c1 [Example 75, 2-Fluoro-5-(10-undecynyloxy)benzenecarboxamide]	< 8	< 8
CCCCCCOCCOc1ccc(F)c(C(N)=O)c1F [Example 85, 2,6-Difluoro-3-[2-(hexyloxy)ethoxy]benzenecarboxamide]	< 8	< 8
COc1ccc(-c2nc(COc3ccc(F)c(C(N)=O)c3F)sc2-c2ccccn2)cc1 [Example 125, 2,6-Difluoro-3-[4-(4-methoxy-phenyl)-5-pyridin-2-yl-thiazol-2-ylmethoxy]-benzamide]	< 8	< 8
CCCCC#CCCOc1cccc(C(N)=O)c1 [Example 59, 3-(3-Octynyloxy)benzenecarboxamide]	< 8	16 to 64 (≈ 65.2 to 261 µM)
Cc1noc(C)c1-c1nc(COc2ccc(F)c(C(N)=O)c2F)no1 [Example 145, 3-[5-(3,5-Dimethyl-isoxazol-4-yl)-[1,2,4]oxadiazol-3-ylmethoxy]-2,6-difluoro-benzamide]	16 to 64 (≈ 45.7 to 183 µM)	> 64
Cc1nn(-c2ccccc2)nc1COc1ccc(F)c(C(N)=O)c1F [Example 325, 2,6-Difluoro-3-(5-methyl-2-phenyl-2H-[1,2,3]triazol-4-ylmethoxy)-benzamide]	< 8	16 to 64 (≈ 46.5 to 186 µM)
COc1ccc2nc(COc3ccc(F)c(C(N)=O)c3F)ccc2c1 [Example 109, 3-(6-Methoxyquinolin-2-ylmethoxy)-2,6-difluoro-benzamide]	< 8	16 to 64 (≈ 46.5 to 186 µM)
NC(=O)c1c(F)ccc(OCc2cc3ccccc3s2)c1F [Example 206, 3-(1-Benzothiophen-2-ylmethoxy)-2,6-difluorobenzenecarboxamide]	< 8	> 64
Cc1ccc2sc(COc3ccc(F)c(C(N)=O)c3F)nc2c1 [Example 148, 2,6-Difluoro-3-(5-methyl-benzothiazol-2-ylmethoxy)-benzamide]	< 8	< 8
NC(=O)c1cccc(OCCC2CCCCCC2)c1 [Example 28, 3-(2-Cycloheptylethoxy)benzenecarboxamide]	< 8	> 64
COc1ccc(-c2nc(COc3ccc(F)c(C(N)=O)c3F)sc2-c2ccc(O)cc2)cc1 [Example 279, 2,6-Difluoro-3-[5-(4-hydroxy-phenyl)-4-(4-methoxy-phenyl)-thiazol-2-ylmethoxy]-benzamide]	< 8	< 8
COc1ccc(-c2nc(COc3ccc(F)c(C(N)=O)c3F)sc2-c2ccccc2O)cc1 [Example 277, 2,6-Difluoro-3-[5-(2-hydroxy-phenyl)-4-(4-methoxy-phenyl)-thiazol-2-ylmethoxy]-benzamide]	< 8	< 8
C=CCc1ccc2sc(COc3ccc(F)c(C(N)=O)c3F)nc2c1 [Example 126, 3-(5-Allyl-benzothiazol-2-ylmethoxy)-2,6-difluoro-benzamide]	< 8	< 8
N#Cc1ccc(-c2csc(COc3ccc(F)c(C(N)=O)c3F)n2)cc1 [Example 276, 3-[4-(4-Cyano-phenyl)-thiazol-2-ylmethoxy]-2,6-difluoro-benzamide]	< 8	< 8
Cc1ccc2ccc(COc3ccc(F)c(C(N)=O)c3F)nc2c1 [Example 103, 3-(7-Methylquinolin-2-ylmethoxy)-2,6-difluoro-benzamide]	< 8	< 8
NC(=O)c1cccc(OCc2cccc(Br)c2)c1 [Example 171, 3-[(3-Bromobenzyl)oxy]benzenecarboxamide]	16 to 64 (≈ 52.3 to 209 µM)	16 to 64 (≈ 52.3 to 209 µM)
CCCC(C)COc1cccc(C(N)=O)c1 (stereo not shown) [Example 39, 3-[(2-Methylpentyl)oxy]benzenecarboxamide]	16 to 64 (≈ 72.3 to 289 µM)	16 to 64 (≈ 72.3 to 289 µM)
NC(=O)c1c(F)ccc(OCc2coc(-c3ccc(Cl)cc3)n2)c1F [Example 294, 3-[2-(4-Chloro-phenyl)-oxazol-4-ylmethoxy]-2,6-difluoro-benzamide]	< 8	< 8
NC(=O)c1c(F)ccc(OCc2ccc3c(Br)cccc3n2)c1F [Example 151, 3-(5-Bromo-quinolin-2-ylmethoxy)-2,6-difluoro-benzamide]	< 8	16 to 64 (≈ 40.7 to 163 µM)
